Laboratory results taken from PubChem BioAssay (NCI).
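Each compound was tested at five concentrations against cells in 96-well plates for 48 hours. GI50 is the concentration that inhibits growth by half. Definition used: TGI = concentration required for complete inhibition of growth.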

What was measured:
Test in all cases: DTP human tumour cell line panel, 48 h
SW-620 colon = system: SW-620 colon
MCF7 breast = system: MCF7 breast
SNB-19 CNS = system: SNB-19 CNS
HT29 colon = system: HT29 colon
SK-MEL-28 melanoma = system: SK-MEL-28 melanoma
IGROV1 ovarian = system: IGROV1 ovarian
NCI-H522 lung = system: NCI-H522 lung
UO-31 renal = system: UO-31 renal
HOP-62 NSCLC = system: HOP-62 NSCLC
SK-MEL-5 melanoma = system: SK-MEL-5 melanoma
SK-OV-3 ovarian = system: SK-OV-3 ovarian
MALME-3M melanoma = system: MALME-3M melanoma
NCI-H226 lung = system: NCI-H226 lung
NCI-H460 lung = system: NCI-H460 lung
T-47D breast = system: T-47D breast
RPMI-8226 leukemia = system: RPMI-8226 leukemia
LOX IMVI melanoma = system: LOX IMVI melanoma
HCC-2998 colon = system: HCC-2998 colon
EKVX NSCLC = system: EKVX NSCLC
SF-268 CNS = system: SF-268 CNS
HOP-92 NSCLC = system: HOP-92 NSCLC
COLO 205 colon = system: COLO 205 colon
UACC-62 melanoma = system: UACC-62 melanoma
K-562 leukemia = system: K-562 leukemia
DU-145 prostate = system: DU-145 prostate
OVCAR-5 ovarian = system: OVCAR-5 ovarian
HS 578T breast = system: HS 578T breast
U251 CNS = system: U251 CNS
UACC-257 melanoma = system: UACC-257 melanoma
ACHN renal = system: ACHN renal
NCI-H23 lung = system: NCI-H23 lung
PC-3 prostate = system: PC-3 prostate
KM12 colon = system: KM12 colon
MOLT-4 leukemia = system: MOLT-4 leukemia
SNB-75 CNS = system: SNB-75 CNS
SR leukemia = system: SR leukemia
OVCAR-8 ovarian = system: OVCAR-8 ovarian
TK-10 renal = system: TK-10 renal
OVCAR-4 ovarian = system: OVCAR-4 ovarian
M14 melanoma = system: M14 melanoma
BT-549 breast = system: BT-549 breast
CCRF-CEM leukemia = system: CCRF-CEM leukemia
SN12C renal = system: SN12C renal
A498 renal = system: A498 renal
SF-539 CNS = system: SF-539 CNS
HCT-116 colon = system: HCT-116 colon
HL-60(TB) leukemia = system: HL-60(TB) leukemia
NCI/ADR-RES ovarian = system: NCI/ADR-RES ovarian
SK-MEL-2 melanoma = system: SK-MEL-2 melanoma
A549 NSCLC = system: A549 NSCLC
786-0 renal = system: 786-0 renal
CAKI-1 renal = system: CAKI-1 renal
SF-295 CNS = system: SF-295 CNS
HCT-15 colon = system: HCT-15 colon
RXF 393 renal = system: RXF 393 renal
OVCAR-3 ovarian = system: OVCAR-3 ovarian
MDA-MB-435 = system: MDA-MB-435
MDA-MB-231 breast = system: MDA-MB-231 breast

Question: How did the GI50 (SW-620 colon) turn out when `O=C1/C(=C/c2ccc(F)cc2)CN(C(=O)CCN2CCC(=NO)CC2)C/C1=C\c1ccc(F)cc1` was run?
Answer: 0.375 µM

Question: And the TGI (SW-620 colon)?
Answer: 1.07 µM

Question: What about the GI50 (MCF7 breast) of the same compound?
Answer: 0.768 µM

Question: And the TGI (MCF7 breast)?
Answer: 4.59 µM

Question: And the GI50 (SNB-19 CNS)?
Answer: 1.53 µM

Question: And the TGI (SNB-19 CNS)?
Answer: 4.1 µM

Question: And the GI50 (HT29 colon)?
Answer: 0.845 µM

Question: And the TGI (HT29 colon)?
Answer: 2.61 µM

Question: And the GI50 (SK-MEL-28 melanoma)?
Answer: 1.85 µM

Question: What about the TGI (SK-MEL-28 melanoma) of the same compound?
Answer: 4.1 µM

Question: And the GI50 (IGROV1 ovarian)?
Answer: 1.43 µM

Question: What about the TGI (IGROV1 ovarian) of the same compound?
Answer: 3.42 µM

Question: And the GI50 (NCI-H522 lung)?
Answer: 1.24 µM

Question: What about the TGI (NCI-H522 lung) of the same compound?
Answer: 3.53 µM

Question: And the GI50 (UO-31 renal)?
Answer: 1.37 µM

Question: And the TGI (UO-31 renal)?
Answer: 2.84 µM

Question: And the GI50 (HOP-62 NSCLC)?
Answer: 2.34 µM

Question: What about the TGI (HOP-62 NSCLC) of the same compound?
Answer: 6.02 µM

Question: What about the GI50 (SK-MEL-5 melanoma) of the same compound?
Answer: 1.73 µM

Question: What about the TGI (SK-MEL-5 melanoma) of the same compound?
Answer: 3.26 µM

Question: What about the GI50 (SK-OV-3 ovarian) of the same compound?
Answer: 5.22 µM

Question: What about the TGI (SK-OV-3 ovarian) of the same compound?
Answer: 11.5 µM

Question: And the GI50 (MALME-3M melanoma)?
Answer: 1.86 µM

Question: What about the TGI (MALME-3M melanoma) of the same compound?
Answer: 4.89 µM

Question: What about the GI50 (NCI-H226 lung) of the same compound?
Answer: 2.55 µM

Question: What about the TGI (NCI-H226 lung) of the same compound?
Answer: 8.51 µM

Question: What about the GI50 (NCI-H460 lung) of the same compound?
Answer: 2.02 µM

Question: And the TGI (NCI-H460 lung)?
Answer: 5.17 µM

Question: What about the GI50 (T-47D breast) of the same compound?
Answer: 2.56 µM

Question: What about the TGI (T-47D breast) of the same compound?
Answer: 9.55 µM

Question: What about the GI50 (RPMI-8226 leukemia) of the same compound?
Answer: 0.707 µM

Question: And the TGI (RPMI-8226 leukemia)?
Answer: 2.13 µM

Question: What about the GI50 (LOX IMVI melanoma) of the same compound?
Answer: 0.409 µM

Question: And the TGI (LOX IMVI melanoma)?
Answer: 0.922 µM

Question: And the GI50 (HCC-2998 colon)?
Answer: 1.5 µM

Question: And the TGI (HCC-2998 colon)?
Answer: 3.08 µM

Question: What about the GI50 (EKVX NSCLC) of the same compound?
Answer: 2.19 µM

Question: And the TGI (EKVX NSCLC)?
Answer: 5.9 µM

Question: And the GI50 (SF-268 CNS)?
Answer: 2.02 µM

Question: And the TGI (SF-268 CNS)?
Answer: 5.46 µM

Question: What about the GI50 (HOP-92 NSCLC) of the same compound?
Answer: 3.21 µM

Question: What about the TGI (HOP-92 NSCLC) of the same compound?
Answer: 7.39 µM

Question: What about the GI50 (COLO 205 colon) of the same compound?
Answer: 1.94 µM

Question: What about the TGI (COLO 205 colon) of the same compound?
Answer: 5.5 µM

Question: What about the GI50 (UACC-62 melanoma) of the same compound?
Answer: 0.84 µM

Question: What about the TGI (UACC-62 melanoma) of the same compound?
Answer: 2.41 µM

Question: And the GI50 (K-562 leukemia)?
Answer: 0.408 µM

Question: What about the TGI (K-562 leukemia) of the same compound?
Answer: > 49.7 µM

Question: What about the GI50 (DU-145 prostate) of the same compound?
Answer: 2.26 µM

Question: What about the TGI (DU-145 prostate) of the same compound?
Answer: 5.17 µM

Question: And the GI50 (OVCAR-5 ovarian)?
Answer: 1.83 µM

Question: And the TGI (OVCAR-5 ovarian)?
Answer: 4.11 µM

Question: And the GI50 (HS 578T breast)?
Answer: 1.71 µM

Question: What about the TGI (HS 578T breast) of the same compound?
Answer: 6.51 µM

Question: And the GI50 (U251 CNS)?
Answer: 0.63 µM

Question: What about the TGI (U251 CNS) of the same compound?
Answer: 2.09 µM

Question: What about the GI50 (UACC-257 melanoma) of the same compound?
Answer: 2.4 µM

Question: What about the TGI (UACC-257 melanoma) of the same compound?
Answer: 7.05 µM

Question: What about the GI50 (ACHN renal) of the same compound?
Answer: 1.08 µM

Question: And the TGI (ACHN renal)?
Answer: 2.86 µM

Question: And the GI50 (NCI-H23 lung)?
Answer: 1.92 µM

Question: What about the TGI (NCI-H23 lung) of the same compound?
Answer: 4.47 µM

Question: What about the GI50 (PC-3 prostate) of the same compound?
Answer: 0.855 µM

Question: What about the TGI (PC-3 prostate) of the same compound?
Answer: 2.97 µM

Question: And the GI50 (KM12 colon)?
Answer: 0.537 µM

Question: What about the TGI (KM12 colon) of the same compound?
Answer: 1.33 µM

Question: And the GI50 (MOLT-4 leukemia)?
Answer: 0.699 µM

Question: What about the TGI (MOLT-4 leukemia) of the same compound?
Answer: 7.97 µM

Question: And the GI50 (SNB-75 CNS)?
Answer: 2.29 µM

Question: What about the TGI (SNB-75 CNS) of the same compound?
Answer: 7.5 µM

Question: And the GI50 (SR leukemia)?
Answer: 0.197 µM

Question: And the TGI (SR leukemia)?
Answer: > 100 µM

Question: And the GI50 (OVCAR-8 ovarian)?
Answer: 1.3 µM

Question: What about the TGI (OVCAR-8 ovarian) of the same compound?
Answer: 5.58 µM

Question: What about the GI50 (TK-10 renal) of the same compound?
Answer: 2.21 µM

Question: What about the TGI (TK-10 renal) of the same compound?
Answer: 6.1 µM

Question: And the GI50 (OVCAR-4 ovarian)?
Answer: 2.34 µM

Question: And the TGI (OVCAR-4 ovarian)?
Answer: 5.14 µM

Question: And the GI50 (M14 melanoma)?
Answer: 1.17 µM

Question: What about the TGI (M14 melanoma) of the same compound?
Answer: 3.69 µM

Question: What about the GI50 (BT-549 breast) of the same compound?
Answer: 1.58 µM

Question: And the TGI (BT-549 breast)?
Answer: 3.21 µM

Question: And the GI50 (CCRF-CEM leukemia)?
Answer: 0.514 µM

Question: And the TGI (CCRF-CEM leukemia)?
Answer: > 57.6 µM

Question: What about the GI50 (SN12C renal) of the same compound?
Answer: 1.2 µM

Question: And the TGI (SN12C renal)?
Answer: 3.64 µM

Question: What about the GI50 (A498 renal) of the same compound?
Answer: 1.31 µM

Question: What about the TGI (A498 renal) of the same compound?
Answer: 2.63 µM

Question: What about the GI50 (SF-539 CNS) of the same compound?
Answer: 1.95 µM

Question: And the TGI (SF-539 CNS)?
Answer: 4.07 µM

Question: And the GI50 (HCT-116 colon)?
Answer: 0.413 µM

Question: What about the TGI (HCT-116 colon) of the same compound?
Answer: 0.861 µM

Question: And the GI50 (HL-60(TB) leukemia)?
Answer: 2.26 µM

Question: And the TGI (HL-60(TB) leukemia)?
Answer: 7.95 µM

Question: What about the GI50 (NCI/ADR-RES ovarian) of the same compound?
Answer: 1.9 µM

Question: And the TGI (NCI/ADR-RES ovarian)?
Answer: 23.4 µM

Question: And the GI50 (SK-MEL-2 melanoma)?
Answer: 4.07 µM

Question: What about the TGI (SK-MEL-2 melanoma) of the same compound?
Answer: 12.4 µM

Question: What about the GI50 (A549 NSCLC) of the same compound?
Answer: 4.09 µM

Question: And the TGI (A549 NSCLC)?
Answer: 11.2 µM

Question: What about the GI50 (786-0 renal) of the same compound?
Answer: 1.48 µM

Question: And the TGI (786-0 renal)?
Answer: 3.45 µM

Question: What about the GI50 (CAKI-1 renal) of the same compound?
Answer: 1.57 µM

Question: And the TGI (CAKI-1 renal)?
Answer: 3.92 µM

Question: And the GI50 (SF-295 CNS)?
Answer: 2.06 µM

Question: What about the TGI (SF-295 CNS) of the same compound?
Answer: 4.72 µM

Question: What about the GI50 (HCT-15 colon) of the same compound?
Answer: 0.691 µM

Question: And the TGI (HCT-15 colon)?
Answer: 2.6 µM

Question: What about the GI50 (RXF 393 renal) of the same compound?
Answer: 1.64 µM

Question: What about the TGI (RXF 393 renal) of the same compound?
Answer: 3.18 µM

Question: And the GI50 (OVCAR-3 ovarian)?
Answer: 1.14 µM

Question: And the TGI (OVCAR-3 ovarian)?
Answer: 3.02 µM

Question: And the GI50 (MDA-MB-435)?
Answer: 0.827 µM

Question: What about the TGI (MDA-MB-435) of the same compound?
Answer: 2.72 µM

Question: What about the GI50 (MDA-MB-231 breast) of the same compound?
Answer: 1.37 µM

Question: What about the TGI (MDA-MB-231 breast) of the same compound?
Answer: 3.54 µM
